For 27 molecules, IC50 results are on record in patent publication US10092584B2 (Achillion Pharmaceuticals, Inc., priority 2015, dated 2018).

T1 sequence (P00746 26-253): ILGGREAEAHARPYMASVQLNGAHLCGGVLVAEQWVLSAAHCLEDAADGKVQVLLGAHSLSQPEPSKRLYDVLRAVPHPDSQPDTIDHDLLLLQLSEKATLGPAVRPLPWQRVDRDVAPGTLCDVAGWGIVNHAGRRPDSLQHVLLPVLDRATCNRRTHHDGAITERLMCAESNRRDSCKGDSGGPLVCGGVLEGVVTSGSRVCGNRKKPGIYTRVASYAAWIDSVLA

The test has as its target T1, Human Factor D (Homo sapiens, UniProt P00746).
T1 construct: purified from human serum; purchased Complement Technology, Inc; host or cells: human serum
Briefly: Human Factor D assay (Example 8). The class given is biochemical. The note with it: Table 3; Human Factor D 80 nM, substrate Z-L-Lys-SBzl; read-out: IC50 (Stars). Put shortly:
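Factor D (from human serum) 80 nM final + cpd, 5 min RT, 50 mM Tris/1M NaCl pH 7.5; add Z-L-Lys-SBzl 100 μM and DTNB 100 μM final. IC50 by nonlinear fit of rates vs [cpd].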
One may read the IC50 as the concentration needed to halve the response being measured. With `CC(=O)c1nn(CC(=O)N2C[C@H](F)C[C@H]2C(=O)Nc2cccc(Br)n2)c2ccccc12` [Compound 388, (2S,4R)-1-(2-(3-acetyl-1H-indazol-1-yl)acetyl)-N-(6-bromopyridin-2-yl)-4-fluoropyrrolidine-2-carboxamide], the IC50 was less than 1000 nM.

Turning to `COC(=O)/C=C/c1cccc(NC(=O)[C@@H]2C[C@@H](F)CN2C(=O)Cn2nc(C(N)=O)c3ccccc32)c1F` [Compound 389, (E)-methyl 3-(3-((2S,4R)-1-(2-(3-carbamoyl-1H-indazol-1-yl)acetyl)-4-fluoropyrrolidine-2-carboxamido)-2-fluorophenyl) acrylate], the IC50 is 1000 to 10000 nM. In the case of `CC(=O)c1nn(CC(=O)N2C[C@H](F)C[C@H]2C(=O)Nc2cccc(Br)n2)c2ccc(O)cc12` [Compound 395, (2S,4R)-1-(2-(3-acetyl-5-hydroxy-1H-indazol-1-yl)acetyl)-N-(6-bromopyridin-2-yl)-4-fluoropyrrolidine-2-carboxamide], the IC50 was less than 1000 nM.

For the molecule `CC(=O)c1nn(CC(=O)N2[C@@H]3C[C@@H]3C[C@H]2C(=O)NC/C(F)=C(/C)c2cccc(Cl)c2)c2ccccc12` [Compound 396], the IC50 is less than 1000 nM. As for `CC(=O)c1nn(CC(=O)N2C[C@H](F)C[C@H]2C(=O)NCC23CC4CC(CC(C4)C2)C3)c2ccccc12` [Compound 397, (2S,4R)-1-(2-(3-acetyl-1H-indazol-1-yl)acetyl)-N-(((3S,5S,7S)-adamantan-1-yl)methyl)-4-fluoropyrrolidine-2-carboxamide], the figure is less than 1000 nM; as for `CC(=O)c1nn(CC(=O)N2C[C@H](F)C[C@H]2C(=O)Nc2cccc(Br)n2)c2cnc(Cl)cc12` [Compound 399, (2S,4R)-1-(2-(3-Acetyl-5-chloro-1H-pyrazolo[3,4-c]pyridin-1-yl)acetyl)-N-(6-bromopyridin-2-yl)-4-fluoropyrrolidine-2-carboxamide], less than 1000 nM; as for `CC(=O)c1nn(CC(=O)N2C[C@H](F)C[C@H]2C(=O)Nc2cccc(-c3ccc4c(c3)CCN4)c2F)c2ccccc12` [Compound 435, (2S,4R)-1-(2-(3-Acetyl-1H-indazol-1-yl)acetyl)-4-fluoro-N-(2-fluoro-3-(indolin-5-yl)phenyl)pyrrolidine-2-carboxamide], less than 1000 nM. As for `CC(=O)c1nn(CC(=O)N2C[C@H](F)C[C@H]2C(=O)Nc2cccc(-c3ccc4c(c3)NCCN4)c2F)c2ccccc12` [Compound 436], the figure is less than 1000 nM; as for `CC(=O)c1nn(CC(=O)N2C[C@H](F)C[C@H]2C(=O)Nc2cccc(-c3ccc4c(c3)NCC4)c2F)c2ccccc12` [Compound 437, (2S,4R)-1-(2-(3-acetyl-1H-indazol-1-yl)acetyl)-4-fluoro-N-(2-fluoro-3-(indolin-6-yl)phenyl)pyrroli-dine-2-carboxamide], less than 1000 nM.

For the molecule `CC(=O)c1nn(CC(=O)N2C[C@H](F)C[C@H]2C(=O)Nc2cccc(-c3ccc4c(c3)CNC4)c2F)c2ccccc12` [Compound 439, (2S,4R)-1-(2-(3-Acetyl-1H-indazol-1-yl)acetyl)-4-fluoro-N-(2-fluoro-3-(isoindolin-5-yl)phenyl)pyrrolidine-2-carboxamide], the IC50 is less than 1000 nM. Turning to `NC(=O)c1nn(CC(=O)N2C[C@H](F)C[C@H]2C(=O)Nc2cccc(-c3ccc4c(c3)NCCO4)c2F)c2ccccc12` [Compound 442, 1-(2-((2S,4R)-2-((3-(3,4-Dihydro-2H-benzo[b][1,4]oxazin-6-yl)-2-fluorophenyl)carbamoyl)-4-fluoropyrrolidin-1-yl)-2-oxoethyl)-1H-indazole-3-carboxamide], the IC50 is less than 1000 nM. As for `NC(=O)c1nn(CC(=O)N2C[C@H](F)C[C@H]2C(=O)Nc2cccc(-c3ccc4c(c3Cl)NCCN4)c2F)c2ccccc12` [Compound 443, 1-(2-((2S,4R)-2-((3-(5-Chloro-1,2,3,4-tetrahydroquinoxalin-6-yl)-2-fluorophenyl)carbamoyl)-4-fluoropyrrolidin-1-yl)-2-oxoethyl)-1H-indazole-3-carboxamide], the figure is less than 1000 nM; as for `CC(=O)c1nn(CC(=O)N2C[C@H](F)C[C@H]2C(=O)Nc2cccc(-c3ccc4c(c3Cl)NCCN4)c2F)c2ccccc12` [Compound 445, (2S,4R)-1-(2-(3-Acetyl-1H-indazol-1-yl)acetyl)-N-(3-(5-chloro-1,2,3,4-tetrahydroquinoxalin-6-yl)-2-fluorophenyl)-4-fluoropyrrolidine-2-carboxamide], less than 1000 nM; as for `CC(=O)c1nn(CC(=O)N2C[C@H](F)C[C@H]2C(=O)Nc2cccc(-c3ccc4c(c3)CCCN4)c2F)c2ccccc12` [Compound 449, (2S,4R)-1-(2-(3-Acetyl-1H-indazol-1-yl)acetyl)-4-fluoro-N-(2-fluoro-3-(1,2,3,4-tetrahydroquinolin-6-yl)phenyl)pyrrolidine-2-carboxamide], less than 1000 nM. As for `CC(=O)c1nn(CC(=O)N2C[C@H](F)C[C@H]2C(=O)Nc2cccc(-c3ccc4c(c3)NCCC4)c2F)c2ccccc12` [Compound 450, (2S,4R)-1-(2-(3-Acetyl-1H-indazol-1-yl)acetyl)-4-fluoro-N-(2-fluoro-3-(1,2,3,4-tetrahydroquinolin-7-yl)phenyl)pyrrolidine-2-carboxamide], the figure is less than 1000 nM; as for `CC(=O)c1nn(CC(=O)N2C[C@H](F)C[C@H]2C(=O)Nc2cccc(-c3ccc4c(c3)CNCC4)c2F)c2ccccc12` [Compound 451, (2S,4R)-1-(2-(3-Acetyl-1H-indazol-1-yl)acetyl)-4-fluoro-N-(2-fluoro-3-(1,2,3,4-tetrahydroisoquinolin-7-yl)phenyl)pyrrolidine-2-carboxamide], less than 1000 nM; as for `O=C(NCc1cccc(Cl)c1F)[C@@H]1C[C@@H](F)CN1C(=O)Cn1cc(-c2cnco2)c2ccccc21` [Compound 452, (2S,4R)—N-(3-chloro-2-fluorobenzyl)-4-fluoro-1-(2-(3-(oxazol-5-yl)-1H-indol-1-yl)acetyl)pyrrolidine-2-carboxamide], less than 1000 nM. To `C[C@@]12C[C@@H](C(=O)Nc3cccc(-c4ccc5nc[nH]c5c4Cl)c3F)N(C(=O)Cn3nc(C(N)=O)c4ccccc43)[C@@H]1C2` [Compound 453, 1-(2-((1R,3S,5R)-3-((3-(7-chloro-1H-benzo[d]imidazol-6-yl)-2-fluorophenyl)car-bamoyl)-5-methyl-2-azabicyclo[3.1.0]hexan-2-yl)-2-oxoethyl)-1H-indazole-3-carboxamide] belongs less than 1000 nM.

With `CC(=O)c1nn(CC(=O)N2[C@@H]3C[C@@H]3C[C@H]2C(=O)Nc2cccc(-c3ccc4nc[nH]c4c3Cl)c2F)c2cnc(C)cc12` [Compound 454, (1R,3S,5R)-2-(2-(3-acetyl-5-methyl-1H-pyrazolo[3,4-c]pyridin-1-yl)acetyl)-N-(3-(7-chloro-1H-benzo[d]imidazol-6-yl)-2-fluorophenyl)-2-azabicyclo[3.1.0] hexane-3-carboxamide], the IC50 is less than 1000 nM. As for `CC(=O)c1nn(CC(=O)N2C[C@H](F)C[C@H]2C(=O)Nc2cccc(-c3ccc4nc[nH]c4c3F)c2F)c2ccccc12` [Compound 455, (2S,4R)-1-(2-(3-acetyl-1H-indazol-1-yl)acetyl)-4-fluoro-N-(2-fluoro-3-(7-fluoro-1H-benzo[d]imidazol-6-yl)phenyl)pyrrolidine-2-carboxamide], the figure is less than 1000 nM. To `NC(=O)c1nn(CC(=O)N2C[C@H](F)C[C@H]2C(=O)Nc2cccc(-c3ccc4nc[nH]c4c3F)c2F)c2ccccc12` [Compound 456, 1-(2-((2S,4R)-4-fluoro-2-((2-fluoro-3-(7-fluoro-1H-benzo[d]imidazol-6-yl)phenyl)carba-moyl)pyrrolidin-1-yl)-2-oxoethyl)-1H-indazole-3-carboxamide] belongs less than 1000 nM; to `CC(=O)c1nn(CC(=O)N2C[C@H](F)C[C@H]2C(=O)Nc2cccc(-c3cccc4nc[nH]c34)c2F)c2ccccc12` [Compound 457, (2S,4R)-N-(3-(1H-benzo[d]imidazol-7-yl)-2-fluorophenyl)-1-(2-(3-acetyl-1H-indazol-1-yl)acetyl)-4-fluoropyrrolidine-2-carboxamide], less than 1000 nM.

`NC(=O)c1nn(CC(=O)N2C[C@H](F)C[C@H]2C(=O)Nc2cccc(-c3cc(Cl)c4nc[nH]c4c3)c2F)c2ccccc12` [Compound 458, 1-(2-((2S,4R)-2-(3-(4-chloro-1H-benzo[d]imidazol-6-yl)-2-fluorophenylcarb-amoyl)-4-fluoropyrrolidin-1-yl)-2-oxoethyl)-1H-indazole-3-carboxamide]: the IC50 is less than 1000 nM. As for `CC(=O)c1nn(CC(=O)N2C[C@H](F)C[C@H]2C(=O)Nc2cccc(-c3ccc4[nH]cnc4c3Cl)c2F)c2cnccc12` [Compound 459, (2S,4R)-1-(2-(3-acetyl-1H-pyrazolo[3,4-c]pyridin-1-yl)acetyl)-N-(3-(4-chloro-1H-benzo[d]imidazol-5-yl)-2-fluorophenyl)-4-fluoropyrrolidine-2-carboxamide], the figure is less than 1000 nM. Consider `CC(=O)c1cn(CC(=O)N2C[C@H](F)C[C@H]2C(=O)Nc2cccc(-c3ccc4[nH]cnc4c3Cl)c2F)c2ccccc12` [Compound 460, (2S,4R)-1-(2-(3-acetyl-1H-indol-1-yl)acetyl)-N-(3-(4-chloro-1H-benzo[d]imidazol-5-yl)-2-fluorophenyl)-4-fluoropyrrolidin-2-carboxamide], for which the IC50 was less than 1000 nM. As for `CC(=O)c1nn(CC(=O)N2C[C@H](F)C[C@H]2C(=O)Nc2cccc(-c3ccc4[nH]cnc4c3Cl)c2F)c2ccccc12` [Compound 461, (2S,4R)-1-(2-(3-acetyl-1H-indazol-1-yl)acetyl)-N-(3-(4-chloro-1H-benzo[d]imidazol-5-yl)-2-fluorophenyl)-4-fluoropyrrolidin-2-carboxamide], the figure is less than 1000 nM. To `CC(=O)c1nn(CC(=O)N2[C@@H]3C[C@@H]3C[C@H]2C(=O)Nc2cccc(-c3ccc4[nH]cnc4c3Cl)c2F)c2ccccc12` [Compound 463, (1R,3S,5R)-2-(2-(3-acetyl-1H-indazol-1-yl)acetyl)-N-(3-(4-chloro-1H-benzo[d]imidazol-5-yl)-2-fluorophenyl)-2-azabicyclo[3.1.0] hexane-3-carboxamide] belongs less than 1000 nM.
